Converted amounts (≈) assume the structure as drawn.
Legend:
[1] = Drug metabolism in rat liver microsomes after 10 mins; type: ADME, Microsome; settings: read-out: Drug metabolism
[2] = Drug metabolism in human liver microsomes after 10 mins; type: ADME, Microsome; settings: read-out: Drug metabolism
Cannabinoid receptor 1 = Cannabinoid receptor 1 (Homo sapiens, UniProt P21554); experiment: Displacement of [3H]SR141716A from human CB1 receptor
[3] = molecular target: T1, Fatty-acid amide hydrolase 1 (Homo sapiens, UniProt O00519); experiment: Inhibition of human FAAH expressed in CHO cells using 7-amino-4-methylcoumarine amide as substrate preincubated for 1 hr by fluorimetry; type: cell-based
T1 sequence (O00519 whole entry): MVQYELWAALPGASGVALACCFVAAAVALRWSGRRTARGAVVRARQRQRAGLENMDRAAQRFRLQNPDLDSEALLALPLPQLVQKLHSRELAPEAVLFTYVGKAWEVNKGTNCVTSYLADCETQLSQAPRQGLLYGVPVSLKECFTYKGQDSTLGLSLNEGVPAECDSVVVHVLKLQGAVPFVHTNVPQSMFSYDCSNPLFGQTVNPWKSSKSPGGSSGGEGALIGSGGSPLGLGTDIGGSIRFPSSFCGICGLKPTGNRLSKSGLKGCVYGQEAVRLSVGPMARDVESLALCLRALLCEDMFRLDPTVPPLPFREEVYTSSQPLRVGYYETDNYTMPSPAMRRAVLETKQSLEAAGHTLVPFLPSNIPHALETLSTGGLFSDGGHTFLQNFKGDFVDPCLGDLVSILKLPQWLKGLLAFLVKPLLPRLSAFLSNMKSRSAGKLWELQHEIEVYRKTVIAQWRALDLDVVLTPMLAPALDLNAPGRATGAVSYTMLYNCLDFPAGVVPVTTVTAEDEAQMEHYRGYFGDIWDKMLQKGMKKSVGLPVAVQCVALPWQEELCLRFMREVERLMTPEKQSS

Cannabinoid receptor 2 = Cannabinoid receptor 2 (Homo sapiens, UniProt P34972); experiment: Displacement of [3H]CP55940 from human CB2 receptor
[4] = molecular target: T2, Fatty-acid amide hydrolase 1 (Rattus norvegicus, UniProt P97612); experiment: Inhibition of rat FAAH using 7-amino-4-methylcoumarine amide as substrate preincubated for 1 hr by fluorimetry
T2 sequence (P97612 whole entry): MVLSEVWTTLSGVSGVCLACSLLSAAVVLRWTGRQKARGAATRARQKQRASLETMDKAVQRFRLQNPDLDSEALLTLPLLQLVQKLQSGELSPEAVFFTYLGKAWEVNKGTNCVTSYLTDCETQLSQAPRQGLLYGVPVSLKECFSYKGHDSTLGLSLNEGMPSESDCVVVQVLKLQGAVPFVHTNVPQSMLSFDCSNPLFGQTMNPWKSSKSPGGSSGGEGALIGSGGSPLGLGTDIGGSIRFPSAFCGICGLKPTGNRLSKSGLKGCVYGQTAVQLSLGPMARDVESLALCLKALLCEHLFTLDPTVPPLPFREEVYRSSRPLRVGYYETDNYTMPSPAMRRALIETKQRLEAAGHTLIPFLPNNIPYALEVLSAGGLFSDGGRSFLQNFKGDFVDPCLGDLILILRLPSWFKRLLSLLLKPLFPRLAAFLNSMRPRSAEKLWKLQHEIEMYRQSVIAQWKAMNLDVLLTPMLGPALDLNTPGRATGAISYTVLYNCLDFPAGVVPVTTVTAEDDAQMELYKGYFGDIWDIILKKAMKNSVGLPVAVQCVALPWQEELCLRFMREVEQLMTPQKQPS

Cytochrome P450 2C19 = Cytochrome P450 2C19 (Homo sapiens, UniProt P33261); experiment: Inhibition of CYP2C19; type: ADME
Plasma [5] = experiment: Ratio of plasma concentration in rat hepatic portal vein to plasma concentration in rat vena cava at 4 mg/kg, po; type: ADME, organism-based; parameters: dose 4 mg/kg, route oral; settings: in vivo
[6] = Volume of distribution in rat at 2 mg/kg, iv; type: ADME, organism-based; parameters: dose 2 mg/kg, route intravenous; settings: in vivo
[7] = Apparent permeability from apical to basolateral side of human Caco2 cells; type: ADME, cell-based; settings: Caco-2
[8] = Cmax in rat at 4 mg/kg, po; type: ADME, organism-based; parameters: dose 4 mg/kg, route oral; settings: in vivo
Rattus norvegicus [9] = experiment: Inhibition of FAAH in rat assessed as AEA level in brain at 1 mg/kg, iv administered 30 mins prior to anandamide loading measured after 30 mins relative to vehicle treated control; type: functional
Brain [10] = experiment: Drug uptake in rat brain at 1 mg/kg, iv; type: ADME, organism-based; parameters: dose 1 mg/kg, route intravenous; settings: in vivo
Plasma [11] = experiment: Plasma concentration in rat at 1 mg/kg, iv; type: ADME, organism-based; parameters: dose 1 mg/kg, route intravenous; settings: in vivo
Brain [12] = experiment: Drug uptake in rat brain at 3 mg/kg, iv; type: ADME, organism-based; parameters: dose 3 mg/kg, route intravenous; settings: in vivo
Cytochrome P450 1A2 = molecular target: T3, Cytochrome P450 1A2 (Homo sapiens, UniProt P05177); experiment: Inhibition of CYP1A2; type: ADME
T3 sequence (P05177 whole entry): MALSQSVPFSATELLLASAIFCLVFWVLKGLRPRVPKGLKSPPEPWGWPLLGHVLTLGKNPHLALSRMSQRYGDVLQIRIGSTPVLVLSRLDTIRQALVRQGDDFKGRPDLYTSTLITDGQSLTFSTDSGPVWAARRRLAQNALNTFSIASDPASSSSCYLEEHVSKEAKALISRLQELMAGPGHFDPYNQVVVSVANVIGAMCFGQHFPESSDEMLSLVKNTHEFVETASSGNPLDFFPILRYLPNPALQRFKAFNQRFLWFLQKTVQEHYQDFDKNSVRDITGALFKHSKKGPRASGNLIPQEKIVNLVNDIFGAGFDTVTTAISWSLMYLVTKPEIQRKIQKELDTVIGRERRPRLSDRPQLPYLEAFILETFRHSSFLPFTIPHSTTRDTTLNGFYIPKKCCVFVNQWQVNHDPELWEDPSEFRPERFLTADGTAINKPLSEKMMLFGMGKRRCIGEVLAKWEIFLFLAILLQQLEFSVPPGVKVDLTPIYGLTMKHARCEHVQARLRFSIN

Cytochrome P450 2D6 = Cytochrome P450 2D6 (Homo sapiens, UniProt P10635); experiment: Inhibition of CYP2D6; type: ADME
Plasma [13] = experiment: Plasma concentration in rat at 0.3 mg/kg, iv; type: ADME, organism-based; parameters: dose 0.3 mg/kg, route intravenous; settings: in vivo
Brain [14] = experiment: Drug uptake in rat brain at 0.3 mg/kg, iv; type: ADME, organism-based; parameters: dose 0.3 mg/kg, route intravenous; settings: in vivo
Rattus norvegicus [15] = experiment: Inhibition of FAAH in iv dosed rat assessed as AEA level in brain administered 30 mins prior to anandamide loading measured after 30 mins; type: functional, organism-based
[16] = Oral bioavailability in rat at 4 mg/kg; type: ADME, organism-based; settings: in vivo
[17] = Plasma clearance in rat at 2 mg/kg, iv; type: ADME, organism-based; parameters: dose 2 mg/kg, route intravenous
[18] = Apparent permeability from basolateral to apical side of human Caco2 cells; type: ADME, cell-based; settings: Caco-2
[19] = molecular target: Voltage-gated inwardly rectifying potassium channel KCNH2 (Homo sapiens, UniProt Q12809); experiment: Inhibition of human ERG
Cytochrome P450 3A4 = Cytochrome P450 3A4 (Homo sapiens, UniProt P08684); experiment: Inhibition of CYP3A4; type: ADME
Cytochrome P450 2C9 = Cytochrome P450 2C9 (Homo sapiens, UniProt P11712); experiment: Inhibition of CYP2C9; type: ADME
Rattus norvegicus [20] = experiment: Inhibition of FAAH in rat assessed as AEA level in brain at 0.3 mg/kg, iv administered 30 mins prior to anandamide loading measured after 30 mins relative to vehicle treated control; type: functional
Rattus norvegicus [21] = experiment: Inhibition of FAAH in rat assessed as AEA level in brain at 3 mg/kg, iv administered 30 mins prior to anandamide loading measured after 30 mins relative to vehicle treated control; type: functional
Monoglyceride lipase = molecular target: T4, Monoglyceride lipase (Homo sapiens, UniProt Q99685); experiment: Inhibition of human recombinant N-His6-tagged MAGL expressed in Escherichia coli using 7-Hydroxycoumarinyl arachidonate as substrate by fluorimetry
T4 sequence (Q99685 whole entry): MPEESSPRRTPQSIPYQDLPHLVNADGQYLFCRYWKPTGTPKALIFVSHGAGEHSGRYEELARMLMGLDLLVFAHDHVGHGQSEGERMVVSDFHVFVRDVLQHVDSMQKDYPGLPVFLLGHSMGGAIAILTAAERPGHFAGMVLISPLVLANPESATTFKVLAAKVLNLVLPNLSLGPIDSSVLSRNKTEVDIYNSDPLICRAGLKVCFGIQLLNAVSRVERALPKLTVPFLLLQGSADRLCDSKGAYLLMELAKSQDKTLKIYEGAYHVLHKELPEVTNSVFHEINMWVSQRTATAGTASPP

[22] = Aqueous solubility of the compound at pH 1; type: physicochemical; settings: aqueous medium
[23] = Aqueous solubility of the compound at pH 6.8; type: physicochemical; settings: aqueous medium
Plasma [24] = experiment: Plasma concentration in rat at 3 mg/kg, iv; type: ADME, organism-based; parameters: dose 3 mg/kg, route intravenous; settings: in vivo

Chain of Cannabinoid receptor 1 (P21554 whole entry): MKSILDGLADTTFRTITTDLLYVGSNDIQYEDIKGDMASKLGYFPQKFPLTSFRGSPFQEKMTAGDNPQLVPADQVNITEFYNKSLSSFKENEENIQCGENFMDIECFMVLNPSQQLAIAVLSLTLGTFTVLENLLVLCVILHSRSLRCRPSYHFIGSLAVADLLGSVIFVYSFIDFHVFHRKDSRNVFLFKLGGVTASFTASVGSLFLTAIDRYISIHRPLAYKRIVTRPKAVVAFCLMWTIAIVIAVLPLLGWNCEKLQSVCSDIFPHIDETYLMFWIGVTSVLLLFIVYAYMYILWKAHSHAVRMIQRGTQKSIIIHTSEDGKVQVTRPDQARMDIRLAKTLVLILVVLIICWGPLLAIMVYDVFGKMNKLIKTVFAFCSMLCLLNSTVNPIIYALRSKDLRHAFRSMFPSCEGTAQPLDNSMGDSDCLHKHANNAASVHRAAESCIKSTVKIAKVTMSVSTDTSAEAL
Chain of Cannabinoid receptor 2 (P34972 whole entry): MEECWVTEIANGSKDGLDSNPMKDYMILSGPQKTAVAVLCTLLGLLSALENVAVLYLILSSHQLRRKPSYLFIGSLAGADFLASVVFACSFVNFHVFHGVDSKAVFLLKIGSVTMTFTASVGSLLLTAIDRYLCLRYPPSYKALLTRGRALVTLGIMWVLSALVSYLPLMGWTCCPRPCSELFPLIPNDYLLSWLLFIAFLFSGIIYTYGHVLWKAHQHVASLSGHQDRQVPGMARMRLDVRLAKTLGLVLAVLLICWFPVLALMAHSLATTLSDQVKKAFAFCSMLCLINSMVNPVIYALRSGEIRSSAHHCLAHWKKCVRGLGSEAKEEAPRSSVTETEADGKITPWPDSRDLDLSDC
Chain of Cytochrome P450 3A4 (P08684 whole entry): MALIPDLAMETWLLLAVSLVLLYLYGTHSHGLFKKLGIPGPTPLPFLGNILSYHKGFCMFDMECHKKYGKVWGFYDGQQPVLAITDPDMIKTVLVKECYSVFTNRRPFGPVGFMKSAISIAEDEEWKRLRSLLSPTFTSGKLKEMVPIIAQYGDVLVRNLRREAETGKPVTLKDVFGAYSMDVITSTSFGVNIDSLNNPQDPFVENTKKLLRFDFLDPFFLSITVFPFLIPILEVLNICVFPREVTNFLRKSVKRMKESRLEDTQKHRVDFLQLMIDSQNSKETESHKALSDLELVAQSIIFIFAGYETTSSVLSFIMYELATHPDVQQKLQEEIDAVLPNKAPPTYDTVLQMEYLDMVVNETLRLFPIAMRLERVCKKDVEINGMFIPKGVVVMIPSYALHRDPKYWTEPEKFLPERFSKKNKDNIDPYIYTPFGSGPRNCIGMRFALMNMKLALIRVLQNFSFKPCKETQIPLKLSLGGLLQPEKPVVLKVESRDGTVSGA
Chain of Voltage-gated inwardly rectifying potassium channel KCNH2 (Q12809 whole entry): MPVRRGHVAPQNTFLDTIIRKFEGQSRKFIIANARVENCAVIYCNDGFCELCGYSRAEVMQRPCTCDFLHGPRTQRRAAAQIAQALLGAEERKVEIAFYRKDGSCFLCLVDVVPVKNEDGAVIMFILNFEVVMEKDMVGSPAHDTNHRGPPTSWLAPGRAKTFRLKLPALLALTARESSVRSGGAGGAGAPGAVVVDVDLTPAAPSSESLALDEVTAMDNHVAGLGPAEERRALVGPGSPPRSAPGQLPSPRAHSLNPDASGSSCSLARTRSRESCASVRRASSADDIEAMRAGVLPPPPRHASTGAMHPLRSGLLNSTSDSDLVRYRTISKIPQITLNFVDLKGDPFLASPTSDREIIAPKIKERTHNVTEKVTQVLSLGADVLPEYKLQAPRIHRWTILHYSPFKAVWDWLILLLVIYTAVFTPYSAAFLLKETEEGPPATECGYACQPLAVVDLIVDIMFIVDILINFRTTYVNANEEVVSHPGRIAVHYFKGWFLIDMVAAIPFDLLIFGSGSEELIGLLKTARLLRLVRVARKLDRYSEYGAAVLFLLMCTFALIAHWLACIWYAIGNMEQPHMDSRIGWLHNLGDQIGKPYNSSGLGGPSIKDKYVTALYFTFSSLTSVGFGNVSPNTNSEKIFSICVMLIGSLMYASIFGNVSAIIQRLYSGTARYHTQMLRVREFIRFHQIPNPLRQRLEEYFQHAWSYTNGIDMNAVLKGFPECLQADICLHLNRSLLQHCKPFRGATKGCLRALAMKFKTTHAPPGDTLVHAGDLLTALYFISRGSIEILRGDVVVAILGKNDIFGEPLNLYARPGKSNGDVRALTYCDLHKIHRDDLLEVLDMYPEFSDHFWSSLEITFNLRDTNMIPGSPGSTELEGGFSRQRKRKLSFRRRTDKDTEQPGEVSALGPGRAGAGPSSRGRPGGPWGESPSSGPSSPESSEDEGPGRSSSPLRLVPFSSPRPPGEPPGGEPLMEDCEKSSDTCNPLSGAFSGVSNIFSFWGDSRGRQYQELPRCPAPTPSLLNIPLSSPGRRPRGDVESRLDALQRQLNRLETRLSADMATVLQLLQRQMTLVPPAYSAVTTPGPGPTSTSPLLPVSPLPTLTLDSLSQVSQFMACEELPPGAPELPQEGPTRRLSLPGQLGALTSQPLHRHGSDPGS
Chain of Cytochrome P450 2C9 (P11712 whole entry): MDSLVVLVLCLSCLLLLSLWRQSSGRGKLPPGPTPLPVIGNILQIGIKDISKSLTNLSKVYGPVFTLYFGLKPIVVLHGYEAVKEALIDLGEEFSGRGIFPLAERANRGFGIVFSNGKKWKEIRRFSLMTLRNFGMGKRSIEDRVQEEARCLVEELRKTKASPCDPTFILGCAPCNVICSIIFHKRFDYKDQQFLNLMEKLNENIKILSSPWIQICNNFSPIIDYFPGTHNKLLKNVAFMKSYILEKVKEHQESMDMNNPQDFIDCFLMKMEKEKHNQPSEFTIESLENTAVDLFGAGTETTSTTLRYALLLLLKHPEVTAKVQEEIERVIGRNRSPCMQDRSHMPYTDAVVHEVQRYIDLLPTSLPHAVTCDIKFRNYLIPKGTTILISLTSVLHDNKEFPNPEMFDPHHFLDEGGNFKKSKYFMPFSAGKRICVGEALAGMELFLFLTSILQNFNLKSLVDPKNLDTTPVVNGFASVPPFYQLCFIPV
Chain of Cytochrome P450 2D6 (P10635 whole entry): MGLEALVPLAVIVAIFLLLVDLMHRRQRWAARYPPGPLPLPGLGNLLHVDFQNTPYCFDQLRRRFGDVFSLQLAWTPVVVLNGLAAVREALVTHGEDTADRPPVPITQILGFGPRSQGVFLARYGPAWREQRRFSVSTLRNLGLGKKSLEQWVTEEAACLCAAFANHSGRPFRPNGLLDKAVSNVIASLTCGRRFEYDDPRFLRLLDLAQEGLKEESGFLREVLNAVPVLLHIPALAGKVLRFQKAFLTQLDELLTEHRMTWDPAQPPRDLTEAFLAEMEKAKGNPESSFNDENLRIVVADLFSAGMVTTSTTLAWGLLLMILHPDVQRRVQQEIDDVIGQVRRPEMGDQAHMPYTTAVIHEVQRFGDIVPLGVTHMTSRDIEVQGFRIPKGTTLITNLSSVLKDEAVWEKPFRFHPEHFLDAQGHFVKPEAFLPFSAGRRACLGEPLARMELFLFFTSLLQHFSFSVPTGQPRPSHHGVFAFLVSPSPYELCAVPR
Chain of Cytochrome P450 2C19 (P33261 whole entry): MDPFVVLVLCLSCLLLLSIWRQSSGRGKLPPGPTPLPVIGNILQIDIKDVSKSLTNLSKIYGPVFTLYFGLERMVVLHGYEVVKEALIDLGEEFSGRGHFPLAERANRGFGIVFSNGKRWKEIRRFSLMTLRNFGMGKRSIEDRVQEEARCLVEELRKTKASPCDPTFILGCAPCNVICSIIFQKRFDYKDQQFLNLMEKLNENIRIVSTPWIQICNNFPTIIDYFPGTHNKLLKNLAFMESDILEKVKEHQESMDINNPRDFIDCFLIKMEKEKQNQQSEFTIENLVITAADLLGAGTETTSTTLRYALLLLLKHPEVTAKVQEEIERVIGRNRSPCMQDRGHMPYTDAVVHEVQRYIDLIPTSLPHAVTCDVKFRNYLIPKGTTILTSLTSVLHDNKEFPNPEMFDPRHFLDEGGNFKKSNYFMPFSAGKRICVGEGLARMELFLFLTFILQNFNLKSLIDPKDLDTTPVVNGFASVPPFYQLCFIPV

CN(Cc1ccccc1)C(=O)N1CC(O[C@H](c2ccc(Cl)cc2)c2cccnc2Cl)C1
metabolised at 10 min [1]: 95% | metabolised at 10 min [2]: 92% | Ki (Cannabinoid receptor 1): 0.0015 µM | IC50 [3]: 40.8 µM | Ki (Cannabinoid receptor 2): 0.49 µM | IC50 [4]: 4.53 µM

CN(Cc1ccccc1)C(=O)N1CC(O[C@@H](c2ccc(Cl)cc2)c2cccnc2Cl)C1
metabolised at 10 min [1]: 98% | metabolised at 10 min [2]: 94% | Ki (Cannabinoid receptor 1): 0.249 µM | IC50 [3]: 0.887 µM | Ki (Cannabinoid receptor 2): 4.02 µM | IC50 [4]: 0.094 µM

O=C(N1CCCCC1)N1CC(O[C@@H](c2ccc(Cl)cc2)c2cccnc2Cl)C1
IC50 (Cytochrome P450 2C19): 2.05 µM | Ratio (Plasma [5]): 17 | Vd [6]: 3.3 L/kg | metabolised at 10 min [1]: 98% | metabolised at 10 min [2]: 92% | Papp A→B [7]: 31.7 ×10⁻⁶ cm/s | Cmax [8]: 5 ng/mL | fold change (FC) (Rattus norvegicus [9]): 3.3 | Drug uptake (Brain [10]): 79 ng/g | Cp (Plasma [11]): 72 ng/g | Drug uptake (Brain [12]): 137 ng/g | IC50 (Cytochrome P450 1A2): > 10 µM | IC50 (Cytochrome P450 2D6): > 10 µM | Cp (Plasma [13]): 8.5 ng/g | Drug uptake (Brain [14]): 18 ng/g | inhibition (Rattus norvegicus [15]): Dose-dependent effect | IC50 [3]: 0.973 µM | bioavailability [16]: 2.4% | clearance [17]: 47 mL/min/kg | Papp B→A [18]: 27.5 ×10⁻⁶ cm/s | IC50 [19]: 30.8 µM | IC50 (Cytochrome P450 3A4): > 10 µM | IC50 (Cytochrome P450 2C9): > 10 µM | fold change (FC) (Rattus norvegicus [20]): 1.7 | fold change (FC) (Rattus norvegicus [21]): 5.1 | IC50 [4]: 0.112 µM | IC50 (Monoglyceride lipase): 22.3 µM | solubility [22]: 158 µM (≈ 66.4 µg/mL) | solubility [23]: 175 µM (≈ 73.6 µg/mL) | Cp (Plasma [24]): 109 ng/g

O=C(N1CCCCC1)N1CC(O[C@H](c2ccc(Cl)cc2)c2cccnc2Cl)C1
metabolised at 10 min [1]: > 99% | metabolised at 10 min [2]: 78% | Ki (Cannabinoid receptor 1): 0.007 µM | IC50 [3]: > 500 µM | IC50 [4]: 42 µM

O=C(N1CCC(CO)CC1)N1CC(OC(c2ccc(Cl)cc2)c2cccnc2Cl)C1 (racemic)
metabolised at 10 min [1]: 18% | metabolised at 10 min [2]: 23% | IC50 [3]: 17.4 µM | IC50 [4]: 1.48 µM

O=C(N1CCC(F)CC1)N1CC(OC(c2ccc(Cl)cc2)c2cccnc2Cl)C1 (racemic)
metabolised at 10 min [1]: 94% | metabolised at 10 min [2]: 62% | IC50 [3]: 2.25 µM | IC50 [4]: 0.388 µM

O=C(N1CCC(F)(F)CC1)N1CC(OC(c2ccc(Cl)cc2)c2cccnc2Cl)C1 (racemic)
metabolised at 10 min [1]: 79% | metabolised at 10 min [2]: 49% | IC50 [3]: 5.1 µM | IC50 [4]: 0.854 µM

CCN(CC)C(=O)N1CC(OC(c2ccc(Cl)cc2)c2cccnc2Cl)C1 (racemic)
metabolised at 10 min [1]: > 99% | metabolised at 10 min [2]: 77% | IC50 [3]: 62.4 µM | IC50 [4]: 5.31 µM
